Series [1] is described as follows: Metabolic stability in mouse liver microsomes assessed as parent compound remaining at 1 uM measured upto 60 mins in presence of NADPH by LC-MS/MS analysis. It counts as ADME, Microsome. The conditions noted are these: read-out: Stabilty. Background: Liver microsomes are a subcellular fraction often used to study metabolism.
Series [2] in a line: Metabolic stability in rat liver microsomes assessed as parent compound remaining at 1 uM measured upto 60 mins in presence of NADPH by LC-MS/MS analysis. The format is ADME, Microsome. The conditions noted are these: read-out: Stabilty.
The nature of series [3]: Metabolic stability in human liver microsomes assessed as parent compound remaining at 1 uM measured upto 60 mins in presence of NADPH by LC-MS/MS analysis. The format is ADME, Microsome. The conditions noted are these: read-out: Stabilty.
The next series is described as follows: in vitro. The conditions noted are these: human, Caco-2.
Series [4] can be described thus: Initial plasma concentration in CD1 mouse at 3 mg/kg, iv by LC-MS/MS analysis. It counts as ADME, organism-based.
Series [5] is described as follows: AUC (0 to t) in CD-1 mouse at 3 mg/kg, iv measured up to 24 hrs by LC-MS/MS analysis. The format is ADME, organism-based. On the set-up: route intravenous, dose 3 mg/kg, time <=24. The conditions noted are these: in vivo.
A short description of series [6]: Volume of distribution in CD1 mouse at 3 mg/kg, iv measured up to 24 hrs by LC-MS/MS analysis. It counts as ADME, organism-based. The conditions noted are these: in vivo.
Series [7] is described as follows: Clearance in CD1 mouse at 3 mg/kg, iv measured up to 24 hrs by LC-MS/MS analysis. The conditions noted are these: in vivo. The format is ADME, organism-based.
A short description of series [8]: Half life in CD1 mouse at 3 mg/kg, iv measured up to 24 hrs by LC-MS/MS analysis. The format is ADME, organism-based. The conditions noted are these: in vivo.
Series [9] in a line: Cmax in CD1 mouse at 10 mg/kg, po measured up to 24 hrs by LC-MS/MS analysis. The format is ADME, organism-based. Also noted: route oral, dose 10 mg/kg, time <=24. The conditions noted are these: in vivo.
Series [10] in a line: AUC (0 to t) in CD-1 mouse at 10 mg/kg, po measured up to 24 hrs by LC-MS/MS analysis. It counts as ADME, organism-based. On the set-up: route oral, dose 10 mg/kg, time <=24. The conditions noted are these: in vivo.
Series [11] is described as follows: Tmax in CD1 mouse at 10 mg/kg, po measured up to 24 hrs by LC-MS/MS analysis. It counts as ADME, organism-based. The conditions noted are these: in vivo.
Series [12] in a line: Oral bioavailability in CD1 mouse at 10 mg/kg measured up to 24 hrs by LC-MS/MS analysis. It counts as ADME, organism-based. The conditions noted are these: in vivo.

Molecules are shown by their SMILES. Where only a bound is given, the exact number is not on record here.

The Papp A→B is how fast a substance crosses the layer from the apical side. Higher therefore signals fast passage. On to `Cc1cc(-c2nc(C(=O)Nc3cc4oc(N5CCOCC5)nc4nc3N3CCCC(F)C3)co2)ccn1` (centres undefined), for which the remaining at 1 h, 1 µM stood at 89% in series [1], 91% in series [2] and 67% in series [3]. In the series “in vitro”, this compound gave a Papp A→B at 2 h, 10 µM of 15.8 ×10⁻⁶ cm/s.
The corresponding values for `O=C(Nc1cc2oc(N3CCOCC3)nc2nc1C1CC1)c1coc(N2CC[C@H](O)C2)n1` are > 95%, > 95%, 90% and 21 ×10⁻⁶ cm/s.
The term AUC(0-t) denotes exposure summed from dosing to a finite time, without extrapolation to infinity. For orientation: Vd means a proportionality between amount in the body and measured concentration, not a real space. The clearance is a measure of how efficiently the substance is removed, as volume per time. A high value points to a high capacity for elimination. Usually half-life stands for the time in which the quantity being followed falls by half. Low readings indicate rapid decline, high ones slow decline. A word on the Cmax: it is the highest concentration seen after dosing. By Tmax is commonly meant the time at which the peak concentration occurs. As a reminder, the bioavailability is the share of a dose that reaches the circulation, judged against a reference dose that is usually intravenous. With `Cc1cc(-c2nc(C(=O)Nc3cc4oc(N5CCOCC5)nc4nc3N3CC[C@H](O)C3)co2)ccn1`, the remaining at 1 h, 1 µM in series [1], in [2] and in series [3] was > 95% throughout. This compound also displayed a C0 in [4] of 788 ng/mL. Further, the AUC(0-t) at 24 h in series [5] amounted to 928 ng·h/mL; in series [10], 4490 ng·h/mL. In [6], this compound yielded a Vd of 5.57 L/kg. The clearance in series [7] is 52.2 mL/min/kg. The compound also showed a half-life in series [8] of 48 min. Also, the peak level in [9] (Cmax) was 2530 ng/mL. The Tmax in series [11] worked out at 18 min. This compound also had a bioavailability in [12] of 100%. This compound also returned a Papp A→B at 2 h, 10 µM in the series “in vitro” of 21.9 ×10⁻⁶ cm/s.
Consider `Cc1cc(-c2nc(C(=O)Nc3cc4oc(N5CCOCC5)nc4nc3C3CC3)co2)ccn1`, for which the remaining at 1 h, 1 µM in series [1] is 13%; in series [2] it was > 95%; in series [3] it was 87%. In “in vitro”, this compound showed a Papp A→B at 2 h, 10 µM of 49.4 ×10⁻⁶ cm/s.
For `Cc1cc(-c2nc(C(=O)Nc3cc4oc(N5CCOCC5)nc4nc3N3CC[C@@H](F)C3)co2)ccn1` the same measures were 88%, 95%, 95% and 54.2 ×10⁻⁶ cm/s.

For the origin of these results see ChEMBL document CHEMBL4665913, “Discovery of CA-4948, an Orally Bioavailable IRAK4 Inhibitor for Treatment of Hematologic Malignancies” (ACS Med Chem Lett, 2020).
